Laboratory results taken from patent US20100292262A1, “4 (PYRROLO[2,3-C]PYRIDINE-3-YL)PYRIMIDIN-2-AMINE DERIVATIVES” (Merck Patent Gesellschaft Mit Beschrankter Haftung, priority 2008, published 2010).

Legend:
[1] = test system: A2780 (ovary) cells; experiment: Inhibition of the proliferation/vitality of tumour cells (Alamar Blue test); assay type: cell-based; conditions: Homo sapiens, 96 h, 4 days cultivation with test substance in serum-containing medium, Alamar Blue readout
Procedure: In the present experiment description, the inhibition of tumour cell proliferation/tumour cell vitality by active ingredients is described. The cells are sown in a suitable cell density in microtitre plates (96-well format) and the test substances are added in the form of a concentration series. After four further days of cultivation in serum-containing medium, the tumour cell proliferation/tumour cell vitality can be determined by means of an Alamar Blue test system.
The cells are cultivated in medium. At intervals of several days, the cells are detached from the culture dishes with the aid of trypsin solution and sown in suitable dilution in fresh medium. The cells are cultivated at 37° Celsius and 10% CO2. […]
In each case, 20 μl of Alamar Blue reagent are added per well, and the microtitre plates are incubated, for example, for a further seven hours in a CO2 incubator (at 37° C. and 10% CO2). The plates are measured in a reader with a fluorescence filter at a wavelength of 540 nm. […]
The absorbance value of the medium control (no cells and test substances used) is subtracted from all other absorbance values. The controls (cells without test substance) are set equal to 100 percent, and all other absorbance values are set in relation thereto (for example in % of control):
IC50 values (50% inhibition) are determined with the aid of statistics programs, such as, for example, RS1.

Row | SMILES | IC50 [1] [nM] | melting point
1 | Nc1nccc(-c2c[nH]c3cnccc23)n1 [Compound A4, 4-(1H-pyrrolo[2,3-c]pyridin-3-yl)pyrimidin-2-ylamine] | 10 to 1000 | 
2 | CCCCc1cc(-c2c[nH]c3cnccc23)nc(N)n1 [Compound A1, 4-butyl-6-(1H-pyrrolo[2,3-c]pyridin-3-yl)pyrimidin-2-ylamine] |  | 184 to 187 °C (dec.)
3 | c1ccc(Nc2nccc(-c3c[nH]c4cnccc34)n2)cc1 [Compound A3, phenyl-[4-(1H-pyrrolo[2,3-c]pyridin-3-yl)pyrimidin-2-yl]-amine] | 10 to 1000 | 
